ChEMBL document CHEMBL1147794, “Synthesis and evaluation of two 18F-labeled imidazo[1,2-a]pyridine analogues as potential agents for imaging beta-amyloid in Alzheimer's disease” (Bioorg Med Chem Lett, 2006)
Active and inactive are the calls of the source. The rule behind the calls is not given here.

Tests used:
[1] = target: Amyloid-beta precursor protein (Homo sapiens, UniProt P05067); assay: Displacement of [125I]IMPY from beta amyloid in human AD cortical tissue
[2] = Lipophilicity, Log P of the compound; format: physicochemical; conditions: octanol/water
Rhesus monkey [3] = assay: Penetration into iv dosed rhesus monkey blood-brain barrier after 9 mins; format: functional, organism-based; conditions: Macaca mulatta, tested as the 18F-labelled form
Rhesus monkey [4] = assay: Uptake in iv dosed rhesus monkey skull; format: functional, organism-based; conditions: Macaca mulatta; tested as the 18F-labelled form

Sequence of Amyloid-beta precursor protein (P05067 whole entry): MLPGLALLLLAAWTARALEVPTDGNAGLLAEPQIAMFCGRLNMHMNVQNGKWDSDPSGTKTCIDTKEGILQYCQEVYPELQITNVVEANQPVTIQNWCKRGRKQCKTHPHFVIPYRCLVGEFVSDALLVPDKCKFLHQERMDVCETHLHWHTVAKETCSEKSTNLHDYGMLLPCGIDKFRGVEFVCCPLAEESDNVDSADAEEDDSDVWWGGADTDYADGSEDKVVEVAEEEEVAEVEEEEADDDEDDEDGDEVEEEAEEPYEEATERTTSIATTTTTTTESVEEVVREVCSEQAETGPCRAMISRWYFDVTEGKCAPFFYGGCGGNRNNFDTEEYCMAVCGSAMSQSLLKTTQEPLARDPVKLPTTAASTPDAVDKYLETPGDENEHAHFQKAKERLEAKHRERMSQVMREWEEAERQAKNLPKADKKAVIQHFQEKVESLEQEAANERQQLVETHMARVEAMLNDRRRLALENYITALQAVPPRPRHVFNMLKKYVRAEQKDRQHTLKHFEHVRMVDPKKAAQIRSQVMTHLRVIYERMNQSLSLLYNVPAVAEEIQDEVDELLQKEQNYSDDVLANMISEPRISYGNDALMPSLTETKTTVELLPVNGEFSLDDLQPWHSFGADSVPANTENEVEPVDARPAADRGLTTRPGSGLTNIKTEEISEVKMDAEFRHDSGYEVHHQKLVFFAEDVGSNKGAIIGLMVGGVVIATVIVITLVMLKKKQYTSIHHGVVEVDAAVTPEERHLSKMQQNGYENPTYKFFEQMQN

SMILES	Ki [1]	logP [2]	Activity (Rhesus monkey [3])	Activity (Rhesus monkey [4])
CN(C)c1ccc(-c2cn3cc(CCF)ccc3n2)cc1	177 nM	2.42		
CN(C)c1ccc(-c2cn3cc(CCCF)ccc3n2)cc1	48.3 nM	2.84	Active	inactive
CN(C)c1ccc(-c2cn3cc(I)ccc3n2)cc1		3.58		
